The nature of data set [1]: Determination of pKa of formulated lipids (TNS fluorescence assay in lipid nanoparticles). The format is physicochemical. Conditions: lipid nanoparticles (compound/DSPC/cholesterol/PEG-lipid), lipid formulated in LNP (lipid/DSPC/cholesterol/PEG-lipid), pH at half-maximal intensity. The method, then: As described elsewhere, the pKa of formulated lipids is correlated with the effectiveness of LNPs for delivery of nucleic acids (see Jayaraman et al, Angewandte Chemie, International Edition (2012), 51(34), 8529-8533; Semple et al, Nature Biotechnology 28, 172-176 (2010)). In some embodiments, the preferred range of pKa is ˜5 to ˜7. The pKa of each lipid is determined in lipid nanoparticles using an assay based on fluorescence of 2-(p-toluidino)-6-napthalene sulfonic acid (TNS). Lipid nanoparticles comprising compound of structure (I)/DSPC/cholesterol/PEG-lipid (50/10/38.5/1.5 or 47.5:10:40.7:1.8 mol %) in PBS at a concentration of 0.4 mM total lipid are prepared using the in-line process as described in Example 1. TNS is prepared as a 100 μM stock solution in distilled water. Vesicles are diluted to 24 μM lipid in 2 mL of buffered solutions containing 10 mM HEPES, 10 mM MES, 10 mM ammonium acetate, and 130 mM NaCl, where the pH ranged from 2.5 to 11. An aliquot of the TNS solution is added to give a final concentration of 1 μM and following vortex mixing fluorescence intensity is measured at room temperature in a SLM Aminco Series 2 Luminescence Spectrophotometer using excitation and emission wavelengths of 321 nm and 445 nm. A sigmoidal best fit analysis is applied to the fluorescence data and the pKa is measured as the pH giving rise to half-maximal fluorescence intensity.

For another data set, the system named is human IgG in mouse serum. Kind of data set: Immunoglobulin G (IgG) mRNA in vivo evaluation using lipid nanoparticle compositions. As to conditions: LNP with IgG mRNA, tail vein injection, serum 24 hours after administration; for Serum IgG @ 0.3 mg/kg: 0.3 mg mRNA/kg; for Serum IgG @ 1.0 mg/kg: 1.0 mg mRNA/kg. Also on record: species or system mice. The method, then:
(§1) A lipid of structure (I), DSPC, cholesterol and PEG-lipid are solubilized in ethanol at a molar ratio of 50:10:38.5:1.5 or 47.5:10:40.7:1.8. Lipid nanoparticles (LNP) are prepared at a total lipid to mRNA weight ratio of approximately 10:1 to 40:1. Briefly, the mRNA is diluted to 0.2 mg/mL in 10 to 50 mM citrate buffer, pH 4 or 10 to 25 mM acetate buffer, pH 4. Syringe pumps are used to mix the ethanolic lipid solution with the mRNA aqueous solution at a ratio of about 1:5 to 1:3 (vol/vol) with total flow rates above 15 mL/min. The ethanol is then removed and the external buffer replaced with PBS by dialysis. Finally, the lipid nanoparticles are filtered through a 0.2 µm pore sterile filter.
Studies are performed in 6-8 week old CD-1/ICR mice (Envigo) according to guidelines established by an institutional animal care committee (ACC) and the Canadian Council on Animal Care (CCAC). Varying doses of mRNA-lipid nanoparticle are systemically administered by tail vein injection and animals euthanized at a specific time point (e.g., 24 hours) post-administration. The whole blood is collected, and the serum subsequentially separated by centrifuging the tubes of the whole blood at 2000×g for 10 minutes at 4° C. and stored at −80° C. until use for analysis.
For immunoglobulin G (IgG) ELISA (Life Diagnostics Human IgG ELISA kit), the serum samples are diluted at 100 to 15000 folds with 1×diluent solution. 100 μL of diluted serum is dispensed into anti-human IgG coated 96-well plate in duplicate alongside human IgG standards and incubated in a plate shaker at 150 rpm at 25° C. for 45 minutes. The wells are washed 5 times with 1× wash solution using a plate washer (400 μL/well). 100 μL of HRP conjugate is added into each well and incubated in a plate shaker at the same condition above. The wells are washed 5 times again with 1× wash solution using a plate washer (400 μL/well). 100 μL of TMB reagent is added into each well and incubated in a plate shaker at the same condition above. The reaction is stopped by adding 100 μL of Stop solution to each well. The absorbance is read at 450 nm (A450) with a microplate reader. The amount of human IgG in mouse serum is determined by plotting A450 values for the assay standard against human IgG concentration.
(§2) Representative compounds of the disclosure shown in Table 2 were formulated using the following molar ratio: 50% cationic lipid/10% distearoylphosphatidylcholine (DSPC)/38.5% Cholesterol/1.5% PEG lipid 2-[2-(ω-methoxy(polyethyleneglycol2000)ethoxy]-N,N-ditetradecyl acetamide) or 47.5% cationic lipid/10% DSPC/40.7% Cholesterol/1.8% PEG lipid. Relative activity was determined by measuring luciferase expression in the liver 4 hours following administration via tail vein injection as described in Example 1 or by measuring the amount of human IgG in mouse serum as described in example 2. The activity was compared at a dose of 1.0 or 0.5 or 0.3 mg mRNA/kg and expressed as ng luciferase/g liver measured 4 hours after administration, as described in Example 1 or as μg IgG/mL serum measured 24 hours after administration, as described in Example 2. Compound numbers in Table 2 refer to the compound numbers of Table 1.

For data set [2], the system named is luciferase expression in the liver. In words: Luciferase mRNA in vivo evaluation using lipid nanoparticle compositions. As to conditions: LNP with FLuc mRNA, tail vein injection, ng luciferase/g liver 4 hours after administration; for Liver Luc @ 0.3 mg/kg: 0.3 mg mRNA/kg; for Liver Luc @ 1.0 mg/kg: 1.0 mg mRNA/kg. More on the design: species or system mice. The method, then:
as §1
Studies are performed in 6-8 week old female C57BL/6 mice (Charles River) 8-10 week old CD-1 (Harlan) mice (Charles River) according to guidelines established by an institutional animal care committee (ACC) and the Canadian Council on Animal Care (CCAC). Varying doses of mRNA-lipid nanoparticle are systemically administered by tail vein injection and animals euthanized at a specific time point (e.g., 4 hours) post-administration. Liver and spleen are collected in pre-weighed tubes, weights determined, immediately snap frozen in liquid nitrogen and stored at −80° C. until processing for analysis.
For liver, approximately 50 mg is dissected for analyses in a 2 mL FastPrep tubes (MP Biomedicals, Solon OH). ¼″ ceramic sphere (MP Biomedicals) is added to each tube and 500 μL of Glo Lysis Buffer—GLB (Promega, Madison WI) equilibrated to room temperature is added to liver tissue. Liver tissues are homogenized with the FastPrep24 instrument (MP Biomedicals) at 2×6.0 m/s for 15 seconds. Homogenate is incubated at room temperature for 5 minutes prior to a 1:4 dilution in GLB and assessed using SteadyGlo Luciferase assay system (Promega). Specifically, 50 μL of diluted tissue homogenate is reacted with 50 μL of SteadyGlo substrate, shaken for 10 seconds followed by 5 minute incubation and then quantitated using a CentroXS^3 LB 960 luminometer (Berthold Technologies, Germany). The amount of protein assayed is determined by using the BCA protein assay kit (Pierce, Rockford, IL). Relative luminescence units (RLU) are then normalized to total μg protein assayed. To convert RLU to ng luciferase a standard curve is generated with QuantiLum Recombinant Luciferase (Promega).
The FLuc mRNA (L-6107) from Trilink Biotechnologies will express a luciferase protein, originally isolated from the firefly, Photinus pyralis. FLuc is commonly used in mammalian cell culture to measure both gene expression and cell viability. It emits bioluminescence in the presence of the substrate, luciferin. This capped and polyadenylated mRNA is fully substituted with 5-methylcytidine and pseudouridine.
as §2

The structures appear in SMILES notation.

Usually pKa stands for the pH at which an ionisable group is half protonated. A low value points to a group that gives up its proton readily. With `CCCCCCCCCCCCN(CCCCCCCCCCCC)C(=O)CCCCCN(C)CCCCCC(=O)N(CCCCCCCCCCCC)CCCCCCCCCCCC` [Compound I-11, 6,6′-(methylazanediyl)bis(N,N-didodecylhexanamide)], the pKa in data set [1] was found to be 6.67. In the data set with human IgG in mouse serum, the “Serum IgG @ 0.3 mg/kg” value was 8.22 ± 0.84 µg/mL and the “Serum IgG @ 1.0 mg/kg” value worked out at 47.68 ± 5.26 µg/mL.
For `CCCCCCCCCCCCN(CCCCCCCCCCCC)C(=O)CCCCCCCN(CCO)CCCCCCCC(=O)N(CCCCCCCCCCCC)CCCCCCCCCCCC` [Compound I-37, 8,8′-((2-hydroxyethyl)azanediyl)bis(N,N-didodecyloctanamide)], the pKa in data set [1] was 6.39. For the same compound, in the data set on human IgG in mouse serum, the “Serum IgG @ 0.3 mg/kg” value was 1.75 ± 0.58 µg/mL and the “Serum IgG @ 1.0 mg/kg” value was 10.05 ± 2.32 µg/mL.
For `CCCCCCCCCCCCN(CCCCCCCCCCCC)C(=O)CCCCCN(CCCCCCO)CCCCCC(=O)N(CCCCCCCCCCCC)CCCCCCCCCCCC` [Compound I-38, 6,6′-((6-hydroxyhexyl)azanediyl)bis(N,N-didodecylhexanamide)] the same measures were 6.48, 4.71 ± 0.46 µg/mL and 45.87 ± 2.33 µg/mL.
For `CCCCCCCCCCCCN(CCCCCCCCCCCC)C(=O)CCCCCCCN(C)CCCCCCCC(=O)N(CCCCCCCCCCCC)CCCCCCCCCCCC` [Compound I-40, 8,8′-(methylazanediyl)bis(N,N-didodecyloctanamide)] the same measures were 6.17, 16.72 ± 5.38 µg/mL and 101.96 ± 4.12 µg/mL.
The compound `CCCCCCCCCCN(CCCCCCCCCC)C(=O)CCCCCCCN(CCCO)CCCCCCCC(=O)N(CCCCCCCCCC)CCCCCCCCCC` [Compound I-41, 8,8′-((3-hydroxypropyl)azanediyl)bis(N,N-didecyloctanamide)] came in with a pKa in data set [1] of 6.6. Besides, in the data set on human IgG in mouse serum, the “Serum IgG @ 0.3 mg/kg” value was determined as 4.78 ± 1.65 µg/mL.
With `CCCCCCCCCCN(CCCCCCCCCC)C(=O)CCCCCCCN(CCCCCCCC(=O)N(CCCCCCCCCC)CCCCCCCCCC)CCOCCO` [Compound I-42, 8,8′-((2-(2-hydroxyethoxy)ethyl)azanediyl)bis(N,N-didecyloctanamide)], in data set [1], the pKa is 6.66. Besides, in the data set with human IgG in mouse serum, the “Serum IgG @ 0.3 mg/kg” value was 3.13 ± 0.27 µg/mL and the “Serum IgG @ 1.0 mg/kg” value came to 12.42 ± 3.81 µg/mL.
For `CCCCCCCCCCN(CCCCCCCCCC)C(=O)CCCCCCCN(CCCCCCCC(=O)N(CCCCCCCCCC)CCCCCCCCCC)CCCC(C)(C)CO` [Compound I-43, 8,8′-((5-hydroxy-4,4-dimethylpentyl)azanediyl)bis(N,N-didecyloctanamide)] the same measures were 6.02, 2.45 ± 0.66 µg/mL and 9.97 ± 1.17 µg/mL.
On the same counts, the results for `CCCCCCCCCCN(CCCCCCCCCC)C(=O)CCCCCCCN(CCCCCCCC(=O)N(CCCCCCCCCC)CCCCCCCCCC)CCCn1ccnc1C` [Compound I-44, 8,8′-((3-(2-methyl-1H-imidazol-1-yl)propyl)azanediyl)bis(N,N-didecyloctanamide)] are 6.69, 0.59 ± 0.11 µg/mL and 1.86 ± 0.27 µg/mL.
In turn, `CCCCCCCCCN(CCCCCCCCC)C(=O)CCCCCCCN(C)CCCCCCCC(=O)N(CCCCCCCCC)CCCCCCCCC` [Compound I-58, 8,8′-(methylazanediyl)bis(N,N-dinonyloctanamide)] gave a pKa in data set [1] of 6.19. For the same compound, in data set [2], the “Liver Luc @ 0.3 mg/kg” value came out at 18664 ± 5438 ng/g and the “Liver Luc @ 1.0 mg/kg” value amounted to 73794 ± 14083 ng/g.
For `CCCCCCCCCCN(CCCCCCCCCC)C(=O)CCCCCCCN(C)CCCCCCCC(=O)N(CCCCCCCCC)CCCCCCCCC` [Compound I-59] the same measures were 6.27, 10786 ± 1924 ng/g and 43489 ± 5698 ng/g.
For `CCCCCCCCCCN(CCCCCCCCCC)C(=O)CCCCCCCCCN(CCCCCCCCCC(=O)N(CCCCCCCCCC)CCCCCCCCCC)CCCNc1c(NC)c(=O)c1=O` [Compound I-60, 10,10′-((3-((2-(methylamino)-3,4-dioxocyclobut-1-en-1-yl)amino)propyl)azanediyl)bis(N,N-didecyldecanamide)], the pKa in data set [1] came to 6.38. Also, in data set [2], the “Liver Luc @ 0.3 mg/kg” value is 2176 ± 162 ng/g and the “Liver Luc @ 1.0 mg/kg” value is listed as 9178 ± 2483 ng/g.
For `CCCCCCCCCCN(CCCCCCCCN(C)CCCCCCCCN(CCCCCCCCCC)C(=O)CCCCCCCCC)C(=O)CCCCCCCCC` [Compound I-65], the pKa in data set [1] was 6.33. In data set [2], the “Liver Luc @ 0.3 mg/kg” value stood at 3172 ± 658 ng/g and the “Liver Luc @ 1.0 mg/kg” value was 24740 ± 6297 ng/g.
For `CCCCCCCCC(CCCCCC)C(=O)N(C)CCCCCCCCN(C)CCCCCCCCN(C)C(=O)C(CCCCCC)CCCCCCCC` (centres unmarked) [Compound I-70, N,N′-((methylazanediyl)bis(octane-8,1-diyl))bis(2-hexyl-N-methyldecanamide)] the same measures were 6.17, 7516 ± 1487 ng/g and 33238 ± 9902 ng/g.

Source of the values: patent US12129223B2, “Lipids for use in lipid nanoparticle formulations” (Acuitas Therapeutics, Inc., priority 2021, dated 2024).
